From paper PMC2765047 (Journal of medicinal chemistry, 2009)
Where two headings read alike, the source gives them in different places.

Columns and labels:
HCMV = conditions: ref [1]; cited from earlier work
HCMV Towne = assay: HCMV plaque reduction assay, Towne strain, in HFF cells; format: cell-based, human cytomegalovirus (HCMV); conditions: Human betaherpesvirus 5, HFF, read-out: EC50 Virus Strain Towne
HFF cells [1] = conditions: read-out: CC50 HCMV/HFF Towne; visual cytotoxicity in uninfected HFF's; ref [2]; cited from earlier work
HFF cells [2] = conditions: read-out: CC50 HCMV/HFF AD169; cytotoxicity by neutral red uptake; ref [2]; cited from earlier work
Akata cells = conditions: read-out: CC50 EBV/Akata, ref [28]; cited from earlier work
[3] = Visual cytotoxicity in uninfected HFF's used in plaque reduction assays; format: cell-based; conditions: human
[4] = Cytotoxicity by neutral red uptake; format: cell-based; conditions: human
ADA from calf intestine = biological target: T1, ADA from calf intestine (Bos taurus, UniProt P56658); assay: Adenosine deaminase; format: biochemical
T1 sequence (P56658 1-363): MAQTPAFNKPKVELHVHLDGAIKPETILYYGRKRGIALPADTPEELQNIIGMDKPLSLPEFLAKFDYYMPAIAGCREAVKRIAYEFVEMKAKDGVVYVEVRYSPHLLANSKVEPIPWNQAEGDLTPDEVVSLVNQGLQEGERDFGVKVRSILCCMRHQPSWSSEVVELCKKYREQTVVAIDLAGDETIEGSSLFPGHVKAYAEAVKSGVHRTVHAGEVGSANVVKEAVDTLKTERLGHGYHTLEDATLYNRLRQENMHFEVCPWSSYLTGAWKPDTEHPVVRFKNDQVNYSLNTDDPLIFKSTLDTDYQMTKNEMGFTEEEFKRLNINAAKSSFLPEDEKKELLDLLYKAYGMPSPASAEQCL

in vitro = format: cell-based; conditions: human
HSV-1 = HSV-1 antiviral assay; format: cell-based, herpes simplex virus 1; conditions: human foreskin fibroblast (HFF) culture
HSV-2 = HSV-2 antiviral assay; format: cell-based, herpes simplex virus 2; conditions: human foreskin fibroblast (HFF) culture

SMILES | CC50 [3] | CC50 [4] | also measured
Nc1c2ncnc-2ncn1/C=C1\CC1CO (centres unmarked) [Compound 1a, synadenol] |  |  | activity against HCMV (in words) (HCMV): effective
Nc1nc(O)c2ncn(/C=C3/CC3CO)c2n1 (centres unmarked) [Compound 1b] |  |  | activity against HCMV (in words) (HCMV): highly effective
Nc1ncnc2c1ncn2C=C1CC1(CO)CO [Compound 3a] |  |  | activity against HCMV (in words) (HCMV): effective
Nc1nc2c(ncn2/C=C2/CC2(CO)CO)c(=O)[nH]1 [Compound 3b, cyclopropavir] |  |  | EC50 (HCMV Towne): 0.6 µM; CC50 (HFF cells [1]): > 100 µM; CC50 (HFF cells [2]): > 100 µM; CC50 (Akata cells): 46 µM; activity against HCMV (in words) (HCMV): highly effective
Nc1ncnc2c1ncn2/C=C1/C[C@@H]1[C@H](O)CO [Compound 12a] | > 100 µM | > 300 µM | 
Nc1nc2c(ncn2/C=C2/C[C@@H]2[C@H](O)CO)c(=O)[nH]1 [Compound 12b, (+)-9-{(Z)-{(S)-2-[(S)-1,2-Dihydroxyethyl)cyclopropylidene]methyl}guanine] | > 100 µM | > 300 µM | 
Nc1ncnc2c1ncn2/C=C1\C[C@@H]1[C@H](O)CO [Compound 13a] |  | > 300 µM | 
Nc1nc2c(ncn2/C=C2\C[C@@H]2[C@H](O)CO)c(=O)[nH]1 [Compound 13b] | > 100 µM |  | 
Nc1ncnc2c1ncn2/C=C1/C[C@@H]1[C@@H](O)CO [Compound 14a] | > 100 µM |  | 
Nc1nc2c(ncn2/C=C2/C[C@@H]2[C@@H](O)CO)c(=O)[nH]1 [Compound 14b] | > 100 µM | > 300 µM | 
Nc1ncnc2c1ncn2/C=C1\C[C@@H]1[C@@H](O)CO [Compound 15a] | > 100 µM | > 300 µM | 
Nc1nc2c(ncn2/C=C2\C[C@@H]2[C@@H](O)CO)c(=O)[nH]1 [Compound 15b] | > 100 µM | > 300 µM | 
Nc1nc2c(ncn2COC(CO)CO)c(=O)[nH]1 [Ganciclovir, ganciclovir] |  |  | EC50 (HCMV Towne): 2 µM
Nc1ncnc2c1ncn2/C=C1/C[C@H]1[C@@H](O)CO [ent-12a] | > 100 µM | 194 µM | substrate activity toward ADA (in words) (ADA from calf intestine): resistant to deamination
Nc1nc2c(ncn2/C=C2/C[C@H]2[C@@H](O)CO)c(=O)[nH]1 [ent-12b] |  |  | CC50 (in vitro): 284 µM; activity against HSV-1 (in words) (HSV-1): inactive; activity against HSV-2 (in words) (HSV-2): inactive
Nc1ncnc2c1ncn2/C=C1\C[C@H]1[C@@H](O)CO [ent-13a] | > 100 µM |  | 
Nc1nc2c(ncn2/C=C2\C[C@H]2[C@@H](O)CO)c(=O)[nH]1 [ent-13b] | > 100 µM |  | 
Nc1ncnc2c1ncn2/C=C1/C[C@H]1[C@H](O)CO [ent-14a] | > 100 µM |  | substrate activity toward ADA (in words) (ADA from calf intestine): resistant to deamination
Nc1nc2c(ncn2/C=C2/C[C@H]2[C@H](O)CO)c(=O)[nH]1 [ent-14b] | > 300 µM | > 300 µM | 
Nc1ncnc2c1ncn2/C=C1\C[C@H]1[C@H](O)CO [ent-15a] | > 100 µM |  | 
